The record followed here is PMC5603227 (ChemMedChem, 2017).

In data set [1] the test system is Mtb H37Rv in infected THP-1 cells. Kind of data set: Intracellular activity in infected THP-1 cells. Format: cell-based. The note with it: Mycobacterium tuberculosis, read-out: MIC against intracellular Mtb.
A further data set has as its system HepG2 cells. The data set is described as follows: cells. Format: cell-based, human.
The subject of data set [2] is Mycobacterium tuberculosis H37Rv. The data set is described as follows: Microplate alamar blue assay. Format: cell-based. In general terms: Resazurin is reduced to fluorescent resorufin, in cell work by metabolically active cells.
For the next data set, the system named is Mycobacterium avium. The data set is described as follows: MIC against non-tuberculous mycobacteria. Format: cell-based. The note with it: read-out: MIC M. avium.
The subject of data set [3] is THP-1 human monocytic cell line. Kind of data set: THP-1 cytotoxicity. The note with it: macrophage cytotoxicity relative to intracellular MIC.
Data set [4] can be described thus: in vitro. The note with it: human; for microsomal CLint: s9; for half-life: s9, Human liver S9 Microsomes T ½.
The target of the next data set is CYP3A4 (Homo sapiens, UniProt P08684). The data set is described as follows: biochemical. The note with it: Cytochrome P450 Inhibition IC50 CYP3A4.
Sequence of CYP3A4 (P08684 whole entry): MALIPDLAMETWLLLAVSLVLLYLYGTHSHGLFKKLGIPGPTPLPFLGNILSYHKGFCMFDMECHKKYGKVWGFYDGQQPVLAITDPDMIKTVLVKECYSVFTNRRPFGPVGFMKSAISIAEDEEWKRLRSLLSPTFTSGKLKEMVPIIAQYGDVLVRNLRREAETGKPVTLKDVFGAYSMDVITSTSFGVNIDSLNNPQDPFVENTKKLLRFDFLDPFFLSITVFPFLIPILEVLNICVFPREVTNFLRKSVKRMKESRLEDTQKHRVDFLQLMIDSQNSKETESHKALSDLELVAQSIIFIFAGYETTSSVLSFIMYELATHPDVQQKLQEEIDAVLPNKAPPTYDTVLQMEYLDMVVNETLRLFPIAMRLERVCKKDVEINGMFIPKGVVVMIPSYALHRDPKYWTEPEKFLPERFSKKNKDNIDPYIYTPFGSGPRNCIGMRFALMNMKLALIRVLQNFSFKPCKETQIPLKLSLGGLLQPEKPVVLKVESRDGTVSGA
For another data set, the target named is CYP2B6 (Homo sapiens, UniProt P20813). The data set is described as follows: biochemical.
Sequence of CYP2B6 (P20813 whole entry): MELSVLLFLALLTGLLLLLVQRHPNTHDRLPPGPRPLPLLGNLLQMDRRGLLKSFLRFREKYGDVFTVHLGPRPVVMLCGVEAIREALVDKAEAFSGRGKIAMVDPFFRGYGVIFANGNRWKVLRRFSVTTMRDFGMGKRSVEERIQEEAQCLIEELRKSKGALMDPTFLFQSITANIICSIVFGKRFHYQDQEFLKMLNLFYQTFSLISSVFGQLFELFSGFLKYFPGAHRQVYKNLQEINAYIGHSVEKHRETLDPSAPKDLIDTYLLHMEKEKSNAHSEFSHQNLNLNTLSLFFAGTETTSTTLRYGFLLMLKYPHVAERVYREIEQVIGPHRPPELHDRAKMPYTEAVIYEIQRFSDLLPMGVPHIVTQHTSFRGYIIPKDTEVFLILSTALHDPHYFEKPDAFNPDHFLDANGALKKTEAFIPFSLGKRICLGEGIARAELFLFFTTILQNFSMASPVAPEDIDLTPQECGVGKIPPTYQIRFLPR
The target in a further data set is CYP2D6 (Homo sapiens, UniProt P10635). Kind of data set: biochemical.
Sequence of CYP2D6 (P10635 whole entry): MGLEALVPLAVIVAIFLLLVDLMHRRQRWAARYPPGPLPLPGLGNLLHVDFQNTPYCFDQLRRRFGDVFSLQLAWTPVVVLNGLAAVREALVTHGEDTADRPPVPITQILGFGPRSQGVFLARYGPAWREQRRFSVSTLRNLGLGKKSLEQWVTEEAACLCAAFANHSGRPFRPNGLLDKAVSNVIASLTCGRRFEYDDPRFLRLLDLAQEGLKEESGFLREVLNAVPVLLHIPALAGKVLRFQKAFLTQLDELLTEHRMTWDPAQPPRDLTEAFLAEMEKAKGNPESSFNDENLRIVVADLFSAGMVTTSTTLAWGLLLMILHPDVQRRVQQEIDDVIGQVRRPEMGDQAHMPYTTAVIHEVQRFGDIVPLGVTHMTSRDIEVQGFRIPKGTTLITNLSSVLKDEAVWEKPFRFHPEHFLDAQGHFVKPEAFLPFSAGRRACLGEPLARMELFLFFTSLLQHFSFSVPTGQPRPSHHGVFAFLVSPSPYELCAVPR
The target in the next data set is CYP2C19 (Homo sapiens, UniProt P33261). The data set is described as follows: biochemical.
Sequence of CYP2C19 (P33261 whole entry): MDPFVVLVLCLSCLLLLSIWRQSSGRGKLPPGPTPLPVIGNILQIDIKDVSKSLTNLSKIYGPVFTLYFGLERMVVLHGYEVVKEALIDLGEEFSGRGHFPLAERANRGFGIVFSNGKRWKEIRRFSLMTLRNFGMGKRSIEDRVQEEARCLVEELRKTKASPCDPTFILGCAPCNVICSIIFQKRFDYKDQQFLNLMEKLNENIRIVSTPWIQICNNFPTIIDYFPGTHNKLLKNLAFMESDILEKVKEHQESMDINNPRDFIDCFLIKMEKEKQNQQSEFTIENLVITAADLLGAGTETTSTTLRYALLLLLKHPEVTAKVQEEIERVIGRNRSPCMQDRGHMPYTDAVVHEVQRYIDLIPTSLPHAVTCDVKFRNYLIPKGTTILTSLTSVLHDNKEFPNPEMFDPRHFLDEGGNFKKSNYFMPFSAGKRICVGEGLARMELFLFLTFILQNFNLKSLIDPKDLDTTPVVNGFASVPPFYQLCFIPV
The target of a further data set is CYP2C9 (Homo sapiens, UniProt P11712). The data set is described as follows: biochemical.
Sequence of CYP2C9 (P11712 whole entry): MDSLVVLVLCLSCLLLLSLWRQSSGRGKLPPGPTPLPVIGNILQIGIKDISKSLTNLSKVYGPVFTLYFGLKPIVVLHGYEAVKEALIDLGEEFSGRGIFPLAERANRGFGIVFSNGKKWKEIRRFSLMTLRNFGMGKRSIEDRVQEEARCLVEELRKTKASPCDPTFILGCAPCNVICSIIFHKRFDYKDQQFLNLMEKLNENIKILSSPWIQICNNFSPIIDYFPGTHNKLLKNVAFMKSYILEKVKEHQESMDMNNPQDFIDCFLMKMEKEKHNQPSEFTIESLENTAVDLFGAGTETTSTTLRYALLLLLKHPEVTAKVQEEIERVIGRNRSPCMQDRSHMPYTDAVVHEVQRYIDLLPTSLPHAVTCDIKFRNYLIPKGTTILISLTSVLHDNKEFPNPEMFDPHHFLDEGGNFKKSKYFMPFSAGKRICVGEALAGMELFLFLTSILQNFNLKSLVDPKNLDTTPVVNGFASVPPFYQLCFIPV
The target of the next data set is CYP2C8 (Homo sapiens, UniProt P10632). The data set is described as follows: biochemical.
Sequence of CYP2C8 (P10632 whole entry): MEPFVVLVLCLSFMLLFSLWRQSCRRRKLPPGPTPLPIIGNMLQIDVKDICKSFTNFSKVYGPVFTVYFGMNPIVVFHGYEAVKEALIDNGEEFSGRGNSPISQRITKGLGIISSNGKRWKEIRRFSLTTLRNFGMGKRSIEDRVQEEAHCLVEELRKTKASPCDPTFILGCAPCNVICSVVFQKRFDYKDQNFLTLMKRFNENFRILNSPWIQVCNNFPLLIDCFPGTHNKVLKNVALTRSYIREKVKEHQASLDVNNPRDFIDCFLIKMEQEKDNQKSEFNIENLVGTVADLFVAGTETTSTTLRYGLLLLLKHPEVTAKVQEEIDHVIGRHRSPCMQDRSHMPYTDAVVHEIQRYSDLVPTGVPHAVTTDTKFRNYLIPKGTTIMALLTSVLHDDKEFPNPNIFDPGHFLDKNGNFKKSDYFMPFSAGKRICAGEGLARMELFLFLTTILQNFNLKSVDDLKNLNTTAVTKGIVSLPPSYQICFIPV
Data set [5] is described as follows: in vitro. The note with it: human; for Papp A→B at 1 h / Papp A→B at 2 h / Papp B→A at 1 h / Papp B→A at 2 h: Caco-2; for efflux ratio: Caco-2, Caco-2 Efflux Ratio (average). A general note: Caco-2 cells form a polarised layer with tight junctions and transporters.
In the next data set the test system is Caco-2 cell monolayer. The note with it: human.
A short description of data set [6]: in vitro. The note with it: plasma.
Data set [7] is described as follows: Relative aqueous solubility by turbidity in 7H9/ADC/Tween medium. The note with it: 200 μM highest concentration tested.
Setting [8] is: Homo sapiens, HepG2, read-out: IC50 HepG2 Gal, galactose medium.
Where [9] appears, read: Homo sapiens, HepG2, read-out: IC50 HepG2 Glu, glucose medium.

In brackets after ≈: the same amount, converted by molar mass. Several values for one entry are separate records, joined by “and”; a condition that tells them apart may be missing. Identical values can stand only once. Like-named read-outs stand apart in the source and are kept apart here.

By MIC is commonly meant the least concentration at which growth counts as inhibited. A word on the IC50: it is the concentration that gives 50% inhibition. Turning to `Cc1ccn2c(C(=O)NCc3ccc(S(F)(F)(F)(F)F)cc3)c(C)nc2c1` [Compound 13, 2,7-Dimethyl-N-(4-(pentafluoro-λ^6-sulfanyl)benzyl)imidazo[1,2-a]pyridine-3-carboxamide], the MIC in [1] was less than 0.01 µM; in data set [2], less than 0.1 µM. Moreover, the IC50 in the data set with HepG2 cells (setting [8]) and in the data set on HepG2 cells (setting [9]) was greater than 25 µM each time.
Take `Cc1ccn2c(C(=O)NCc3cccc(S(F)(F)(F)(F)F)c3)c(C)nc2c1` [Compound 14, 2,7-Dimethyl-N-(3-(pentafluoro-λ^6-sulfanyl)benzyl)imidazo[1,2-a]pyridine-3-carboxamide]: the MIC in the data set with Mycobacterium avium came to 200 µM (≈ 81.1 µg/mL). Besides, the IC50 in the data set on HepG2 cells (setting [8]) and in the data set with HepG2 cells (setting [9]) was greater than 25 µM each time.
For the compound `Cc1ccc2nc(C)c(C(=O)NCc3ccc(S(F)(F)(F)(F)F)cc3)n2c1` [Compound 15, 2,6-Dimethyl-N-(4-(pentafluoro-λ^6-sulfanyl)benzyl)imidazo[1,2-a]pyridine-3-carboxamide], the MIC is less than 0.01 µM in data set [1] and less than 0.1 µM in [2]. The 50% inhibitory concentration (IC50) with HepG2 cells (setting [8]) and with HepG2 cells (setting [9]) was greater than 25 µM in each case.
As to `Cc1ccc2nc(C)c(C(=O)NCc3cccc(S(F)(F)(F)(F)F)c3)n2c1` [Compound 16, 2,6-Dimethyl-N-(3-(pentafluoro-λ^6-sulfanyl)benzyl)imidazo[1,2-a]pyridine-3-carboxamide], the IC50 in the data set with HepG2 cells (setting [8]) and in the data set with HepG2 cells (setting [9]) was greater than 25 µM each time. In addition, the MIC in data set [2] was less than 0.1 µM.
Turning to `CCc1nc2ccc(Cl)cn2c1C(=O)NCc1ccc(S(F)(F)(F)(F)F)cc1` [Compound 17, 6-Chloro-2-ethyl-N-(4-(pentafluoro-λ^6-sulfanyl)benzyl)imidazo[1,2-a]pyridine-3-carboxamide], the MIC in data set [1] is less than 0.01 µM. Besides, the IC50 in the data set on HepG2 cells (setting [8]) and in the data set on HepG2 cells (setting [9]) was greater than 25 µM in each case. The compound also registered a therapeutic window in data set [3] greater than 100.
A word on the microsomal CLint: it is the capacity of the preparation to metabolise the compound, expressed as a volume cleared per time. Read a low microsomal CLint as greater metabolic stability. As usually defined, the half-life is how long it takes for the measured level to halve. Low values mean rapid decline, high ones slow decline. What is called Papp A→B is the apparent permeability from the apical to the basolateral side of a cell layer. Higher therefore signals ready permeation. For orientation: Papp B→A means the apparent permeability from the basolateral to the apical side of a cell layer. As usually defined, the efflux ratio is the permeability from basolateral to apical divided by that in the opposite direction, in the common usage. As usually defined, the fraction unbound is free concentration divided by total concentration. The compound `CCc1nc2ccc(Cl)cn2c1C(=O)NCc1cccc(S(F)(F)(F)(F)F)c1` [Compound 18, 6-Chloro-2-ethyl-N-(3-(pentafluoro-λ^6-sulfanyl)benzyl)imidazo[1,2-a]pyridine-3-carboxamide] registered a microsomal CLint in the data set “in vitro [4]” of 89.7 µL/min/mg. The compound also displayed a half-life in the data set “in vitro [4]” of 25.8 min. The IC50 is greater than 25 µM in the data set on HepG2 cells (setting [8]); greater than 25 µM with HepG2 cells (setting [9]); 8.4 µM and > 20 µM at CYP3A4; 8.4 µM at CYP2B6; 6.5 µM against CYP2D6; 10.6 µM at CYP2C19. Also, the IC50 at CYP2C9 was 10.4 µM; at CYP2C8, 14.4 µM. Besides, the Papp A→B at 1 h in the data set “in vitro [5]” was 1.09 ×10⁻⁶ cm/s. Moreover, the Papp A→B at 2 h in “in vitro [5]” was 1.99 ×10⁻⁶ cm/s. In “in vitro [5]”, the Papp B→A at 1 h worked out at 3.65 ×10⁻⁶ cm/s. Further, the Papp B→A at 2 h in “in vitro [5]” was 5.61 ×10⁻⁶ cm/s. In “in vitro [5]”, the efflux ratio was 3.2. Besides, in the data set on Caco-2 cell monolayer, the “Caco-2 Efflux Ratio (average)” value is on record as 3.16. In “in vitro [6]”, this compound yielded a fraction unbound of 0.001.
In the case of `Cc1cn2c(C(=O)NCc3ccc(S(F)(F)(F)(F)F)cc3)c(C)nc2s1` [Compound 19, 2,6-Dimethyl-N-(4-(pentafluoro-λ^6-sulfanyl)benzyl)imidazo[2,1-b]thiazole-5-carboxamide], the “Human liver S9 Microsomes T ½” value is on record as 13.3 min. In “in vitro [4]”, this compound yielded a microsomal CLint of 175 µL/min/mg and a half-life of 13.5 min. In addition, in the data set on Mycobacterium avium, the MIC was found to be 200 µM (≈ 82.3 µg/mL). Moreover, the IC50 with HepG2 cells (setting [8]) was greater than 25 µM. Besides, the half-maximal inhibitory concentration (IC50) in the data set with HepG2 cells (setting [9]) was greater than 25 µM. In addition, at CYP3A4, the IC50 is greater than 20 µM. This compound also returned an IC50 against CYP2B6 greater than 20 µM. The compound further yielded an IC50 against CYP2D6 of 13.4 µM. Moreover, on CYP2C19, the IC50 was found to be 13.5 µM. On CYP2C9, this compound showed an IC50 of 14 µM. For the same compound, the MIC in data set [2] is less than 0.1 µM. The IC50 against CYP2C8 was greater than 20 µM. In “in vitro [5]”, this compound showed a Papp A→B at 1 h of 6.35 ×10⁻⁶ cm/s, a Papp A→B at 2 h of 12.1 ×10⁻⁶ cm/s, a Papp B→A at 1 h of 8.35 ×10⁻⁶ cm/s and a Papp B→A at 2 h of 8.1 ×10⁻⁶ cm/s. For the same compound, the efflux ratio in “in vitro [5]” is less than 1. Also, the “Caco-2 Efflux Ratio (average)” value with Caco-2 cell monolayer is listed as 0.988. For the same compound, in the data set “in vitro [6]”, the fraction unbound is 0.003.
As for `Cc1cn2c(C(=O)NCc3cccc(S(F)(F)(F)(F)F)c3)c(C)nc2s1` [Compound 20, 2,6-Dimethyl-N-(3-(pentafluoro-λ^6-sulfanyl)benzyl)imidazo[2,1-b]thiazole-5-carboxamide], the IC50 in the data set on HepG2 cells (setting [8]) is 14 µM; in the data set on HepG2 cells (setting [9]), greater than 25 µM; in the data set with HepG2 cells (read-out: IC50 HepG2 Gal, galactose medium) it was 14.1 µM.
In the case of `NNC(=O)c1ccncc1` [INH, Isoniazid, reference compound], the MIC in [1] is 0.37 µM (≈ 0.0507 µg/mL).
Take `CC(=O)NC[C@H]1CN(c2ccc(N3CCOCC3)c(F)c2)C(=O)O1` [LIN, linezolid, reference compound]: the IC50 with HepG2 cells (setting [8]) and in the data set with HepG2 cells (setting [9]) was greater than 25 µM each time.
For the compound `CC/C(=C(/CC)c1ccc(O)cc1)c1ccc(O)cc1` [diethylstilbestrol], in [7], the Aq. sol was determined as 125 µM.
